Results published in PubChem BioAssay (NCI).
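Cultured in 96-well plates, cells were exposed to test compound for 48 hours across five concentrations. The concentration for 50% growth inhibition is given as GI50. TGI marks complete inhibition of growth.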

How the values were obtained:
Test in all cases: NCI tumour cell line growth inhibition, 48 h
CCRF-CEM leukemia = tested on: CCRF-CEM leukemia
MALME-3M melanoma = tested on: MALME-3M melanoma
A498 renal = tested on: A498 renal
SK-OV-3 ovarian = tested on: SK-OV-3 ovarian
DU-145 prostate = tested on: DU-145 prostate
A549 NSCLC = tested on: A549 NSCLC
HOP-62 NSCLC = tested on: HOP-62 NSCLC
MOLT-4 leukemia = tested on: MOLT-4 leukemia
CAKI-1 renal = tested on: CAKI-1 renal
786-0 renal = tested on: 786-0 renal

Row | Structure (SMILES) | TGI (CCRF-CEM leukemia) | TGI (MALME-3M melanoma) | TGI (A498 renal) | TGI (SK-OV-3 ovarian) | TGI (DU-145 prostate) | TGI (A549 NSCLC) | TGI (HOP-62 NSCLC) | TGI (MOLT-4 leukemia) | TGI (CAKI-1 renal) | TGI (786-0 renal) | GI50 (CCRF-CEM leukemia) | GI50 (MALME-3M melanoma) | GI50 (A498 renal) | GI50 (SK-OV-3 ovarian) | GI50 (DU-145 prostate) | GI50 (A549 NSCLC) | GI50 (HOP-62 NSCLC) | GI50 (MOLT-4 leukemia) | GI50 (CAKI-1 renal) | GI50 (786-0 renal)
1 | CN(C)CCNC(=O)c1nc([N+](=O)[O-])cn1C | > 100 µM | > 100 µM | > 100 µM | > 100 µM | > 100 µM | > 100 µM | > 100 µM | > 100 µM | > 100 µM | > 100 µM |  |  |  |  |  |  |  |  |  | 
2 | O=[N+]([O-])c1ccc(N=Nc2c(O)[nH]c3ccccc23)cc1 | > 80.1 µM | 45.2 µM | 39.5 µM | 65.3 µM | 36.4 µM | > 100 µM | 34 µM | > 100 µM | 40.4 µM | 61.7 µM |  |  |  |  |  |  |  |  |  | 
3 | Oc1cc(Cl)ccc1Cc1ccc(Cl)cc1O | > 100 µM | 19.2 µM | 31.3 µM | 43.3 µM | 23.2 µM | 41.1 µM | 31.7 µM | > 100 µM | 43 µM | 38 µM | 15.8 µM | 4.32 µM | 17.4 µM | 20.6 µM | 10.4 µM | 14.7 µM | 11.7 µM | 9.24 µM | 18.2 µM | 18.4 µM
4 | C=C(C)[C@@H]1CC[C@]2(C(=O)NCCNCCNCCN)CC[C@]3(C)[C@H](CC[C@@H]4[C@@]5(C)CCC(=O)C(C)(C)[C@@H]5CC[C@]43C)[C@@H]12 | 27.8 µM | 16.5 µM | > 50 µM | 25.9 µM | 14.1 µM | 15.9 µM | 16.6 µM | 31.1 µM | 13.1 µM | 15.8 µM | 9.65 µM | 7.4 µM | 42.6 µM | 10.6 µM | 7.47 µM | 7.69 µM | 7.91 µM | 6.96 µM | 5.87 µM | 7.8 µM
5 | CNCCOC(=O)/C=C1/CCC2C(C(O)CC3C(C)(C(=O)OC)CCCC23C)C1C (centres undefined) | 0.0518 µM | 0.0599 µM | 0.0585 µM | 0.0394 µM | 0.0305 µM | 0.0116 µM | 0.0259 µM | 0.0203 µM | 0.053 µM | 0.0341 µM | 0.0138 µM | 0.0253 µM | 0.0161 µM | 0.0205 µM | 0.016 µM | < 0.01 µM | 0.013 µM | < 0.01 µM | 0.0202 µM | 0.0166 µM
6 | CC1(C)Cc2c(Br)c(Br)c(Br)c(OCC(O)CN3CCOCC3)c2O1 (centres undefined) | 24.1 µM | 32.7 µM | 26.4 µM | 29.6 µM | 26.2 µM | 28.4 µM | 27.3 µM | 14.1 µM | 27.4 µM | 28.6 µM | 10.2 µM | 15 µM | 12.6 µM | 15.9 µM | 13.4 µM | 12.9 µM | 12.2 µM | 3.15 µM | 12.3 µM | 13 µM
7 | CN(C)S(=O)(=O)c1ccc(Nc2ccc(O)c3c2C(=O)c2c([N+](=O)[O-])ccc(O)c2C3=O)cc1 | 44.9 µM | > 100 µM | > 100 µM | > 100 µM | > 100 µM | > 100 µM | > 100 µM | > 100 µM | > 100 µM | > 100 µM |  |  |  |  |  |  |  |  |  | 
8 | CN1CCC(n2[nH]c(-c3ccccc3)c(Cc3ccccc3)c2=O)CC1 | > 100 µM | > 100 µM | > 100 µM | > 100 µM | > 100 µM | > 100 µM | > 100 µM | 89.7 µM | > 100 µM | > 100 µM |  |  |  |  |  |  |  |  |  | 
9 | COc1ccc(-c2ccccc2)cc1-c1c(Nc2cc(Cl)cc(Cl)c2O)c(=O)c1=O | > 50 µM | 3.5 µM | 2.2 µM | 4.25 µM | > 50 µM | > 50 µM | > 50 µM | > 50 µM | 4.83 µM | > 50 µM | 1.64 µM | 1.19 µM | 0.726 µM | 1.28 µM | 1.7 µM | 1.65 µM | 1.56 µM | 1.78 µM | 1.33 µM | 1.84 µM
10 | CC1(C)N[P+]2(Nc3ccccc3O2)OC1=O (centres undefined) | > 100 µM | > 100 µM | > 100 µM | > 100 µM | > 100 µM | > 100 µM | > 100 µM | > 100 µM | > 100 µM | > 100 µM |  |  |  |  |  |  |  |  |  | 
11 | COc1cc(-c2n/c(=C\c3c(O)[nH]c4ccccc34)cc3c2=Nc2ccccc2-3)cc(OC)c1OC | > 100 µM | > 100 µM | 6.25 µM | > 100 µM | > 100 µM | > 100 µM | > 100 µM | 7.34 µM | > 100 µM | 31.7 µM | 1.12 µM | 0.448 µM | 0.854 µM | 4.58 µM | 1.12 µM | 0.675 µM | 0.536 µM | 0.528 µM |  | 0.864 µM
12 | Cc1ccc(/C(=C/C=C(C#N)C#N)Sc2ccccn2)cc1 | 0.575 µM | 17.3 µM | 24 µM | 65.8 µM | 6.06 µM | 31.8 µM | 18 µM | 6.32 µM | 11.8 µM | 5.64 µM | 0.168 µM | 4.09 µM | 11.6 µM | 19.6 µM | 2.28 µM | 12.3 µM | 6.5 µM | 2.01 µM | 5.62 µM | 2.15 µM
13 | Cc1cc2nc3c4cccc(O)c4n(CCN(C)C)c3nc2cc1C | 6.25 µM | 3.42 µM | 9.08 µM | 14.6 µM | 8.79 µM | 12.5 µM | 7.53 µM | 8.98 µM | 3.89 µM | 21.1 µM | 1.57 µM | 1.64 µM | 2.09 µM | 3.04 µM | 2.96 µM | 1.41 µM | 1.88 µM | 0.443 µM | 1.35 µM | 3.88 µM
